Where two headings read alike, the source gives them in different places.
Tests used:
HeLa cells = experiment: Cytotoxicity studies in HeLa cells (MTT assay / crystal violet assay); type: cell-based; settings: for IC50: 48 h, read-out: IC50 in Hela cell line; for effect on cell viability: 20 μM alkyne alone, HeLa cells
Description: Cell cultures. HeLa cells (ATCC) were used in the following cell culture studies. HeLa cells were maintained in DMEM (Dulbecco's Modified Eagle's Medium) supplemented with 10% fetal bovine serum (MidSci; S01520HI), and 1% penicillin-streptomycin (Sigma-Aldrich; P4333) at 37° C. with 5% CO2.
Cytotoxicity studies. Test compound was dissolved in DMSO to afford a stock solution. The final concentration of DMSO in the cell culture was 1% (v/v) in PBS. HeLa cells were seeded in 96-well plates one day before the experiment. Different concentrations of prodrug was added into the cell culture. The cells were then incubated for 48 h at 37° C. with 5% CO2. The cell viability was tested by the MTT assay described in Levitz, S. M., et al. J Infect Dis 1985, 152, 938-945. Specifically, after 48 h of incubation, 5 mg/mL MTT (3-(4,5-dimethylthiazol-2-yl)-2,5-diphenyltetrazolium bromide) was added into the cell culture. After incubation for 4 h, the supernatant was removed and 100 μL DMSO was added into the wells containing the cells. After shaking gently for 3 min, absorbance at 605 nm was read by a plate reader.
Cytotoxicity studies using crystal violet assay. The test compound was dissolved in DMSO to afford a stock solution. The final concentration of DMSO in cell culture was 1% (v/v) in PBS. HeLa cells were seeded in 96-well plates one day before the experiment. Different concentrations of the test compound were added into the cell culture. The cells were then incubated for 48 h at 37° C. with 5% CO2. Cell viability was tested by the crystal violet assay. Specifically, after 48 h of incubation, the cells were fixed in 100% methanol for 10 min and stained for 20 min with a 1% crystal violet solution in 50% methanol, followed by 5 repeated washings with PBS. 50 μL of DMSO was added to each well. After 20 min of incubation, the plates were analyzed in a microplate reader at 595 nm.
Similar results were observed when the alkyne concentration was decreased to 10 μM. For example, the IC50 of TPP-Dox prodrug 1c was about 2 μM in the presence of 2b, while the IC50 for Dox prodrug 1b was well over 10 μM in the presence of 10 μM of the alkyne trigger 2a (FIG. 3a). As controls, both the IC50 values of 1c and 2b alone were higher than 40 μM, and the treatment of 20 μM of alkyne 2a or 2b alone had no effect on cell viability. […] Without such an enrichment, the reaction is expected to be slow, resulting in a lower level of active Dox being released. […] Thus, mitochondrial enrichment leads to triggered release of the drug. The same concept is applicable to the delivery of drugs through other targeting approaches such as receptor-mediated drug delivery.

[1] = HPLC studies of reaction kinetics of tetrazine prodrugs with cyclooctyne alkynes (Kobs, second-order rate constant k2); type: physicochemical; settings: alkyne 2b; 37° C.; PBS containing 10% DMSO; n = 3
Description: Stock solution preparation. Each of the tetrazine prodrugs (compounds 1b, 1c, and 1d) was dissolved in DMSO to afford a 500-μM stock solution. Each of the alkynes (compounds 2a, 2b, 2c, and 2d) was dissolved in DMSO to afford a 50-mM stock solution. Doxorubicin (Dox) and dansylamino compound (DA) 1.1b were each dissolved in DMSO to afford 1-mM stock solutions.
(§1) HPLC method A.: mobile phase A (10 mM NaH2PO4 in water, pH=5.0) and mobile phase B (ACN), flow rate: 1 mL/min, running time: 30 min, the gradient elution method: 25% B from 0 to 6 min, 25% to 50% B from 6 to 8 min, 50% B from 8 to 15 min, 50% to 99% B from 15 to 20 min, 99% B from 20 to 25 min, 99% to 25% B from 25 to 30 min. Detection wavelength: 256 nm. Column: Waters C18 3.5 μM, 4.6×100 mm. Injection volume: 20 μL.
as §1, with “method B:” for “method A.:”, “method: 30%” for “method: 25%”, “min, 30%” for “min, 25%”, “25 min.” for “25 min,”, “to 30%” for “to 25%”, “Detection wavelength 1: 256, detection wavelength 2: 337” for “Detection wavelength: 256”
General procedures HPLC studies of reaction kinetics. To three 20-ml vials with 9 mL PBS were added a solution of tetrazine prodrug (500 μL, 500 μM). 350 μL, 300 μL and 250 μL DMSO were added to vial respectively, and then 150 μL, 200 μL and 250 μL of the alkyne solution (50 mM in DMSO) were added to the vials to afford final concentrations of alkyne 0.75 mM, 1 mM and 1.25 mM in PBS (10% DMSO, 25 μM prodrug) respectively. The reaction was stirred at r.t or 37° C. respectively. Every 30 min about 500 μL reaction mixtures were taken out and 20 μL of them were injected into the HPLC by the autosampler; the rest of them were poured back to the reaction mixture. (Note: In the cases of prodrugs 1d or 1b reacting with alkyne 2d at 37° C., the final concentrations of 2d in the kinetic studies were 250 μM, 300 μM and 350 μM).
Determination of second-order rate constants. The reaction rate constant, kobs, was calculated for each concentration of the alkyne by fitting the prodrug areas versus time using eq. 1: Y=A exp(−kobst) eq. 1 where Y is the prodrug area, and t is time. The pseudo-first-order rate constant, kobs, was then plotted against the concentration of alkyne to yield the second-order rate constant using eq 2: kobs=k2[Alkyne] eq. 2 where k2 is the second-order rate constant.

[2] = Homo sapiens, HeLa, compound alone

## C#CCOc1ccc(-c2nnc(C(=O)O)nn2)cc1 [1a, 6-(4-(prop-2-yn-1-yloxy)phenyl)-1,2,4,5-tetrazine-3-carboxylic acid]
HeLa cells; in the presence of 100 μM alkyne 2d
  IC50: > 100 µM
[1]
  k2 at 37° C. (second order rate constant): 0.25 M⁻¹ s⁻¹

## O=C(O)c1ccc(CC2(O)C#CCCCCC2)cc1 (stereo not shown) [2a, 4-((1-hydroxycyclooct-2-yn-1-yl)methyl)benzoic acid]
HeLa cells
  effect on cell viability: no effect

## O=C(NCCC[P+](c1ccccc1)(c1ccccc1)c1ccccc1)c1ccc(CC2(O)C#CCCCCC2)cc1.[Br-] (stereo not shown) [2b, (3-(4-((1-hydroxycyclooct-2-yn-1-yl)methyl)benzamido)propyl)-triphenylphosphonium bromide]
HeLa cells
  effect on cell viability: no effect
HeLa cells; [2]
  IC50: > 40 µM
HeLa cells; compound alone, listed as Alkyne 2b
  IC50: > 50 µM

## COc1cccc2c1C(=O)c1c(O)c3c(c(O)c1C2=O)C[C@@](O)(C(=O)CO)C[C@@H]3O[C@H]1C[C@H](N)[C@H](O)[C@H](C)O1 [Dox, Doxorubicin, reference compound]
HeLa cells; [2]
  IC50: ~1 µM

From US11607458B2 (Georgia State University Research Foundation, Inc, priority 2017, dated 2023)
